Measurements as given in ChEMBL document CHEMBL2413050, “Design and synthesis of conformationally restricted capsaicin analogues based in the 1, 3, 4-thiadiazole heterocycle reveal a novel family of transient receptor potential vanilloid 1 (TRPV1) antagonists” (Eur J Med Chem, 2013).
pIC50: −log10 of the molar value.

Assays:
[1] = target: Transient receptor potential cation channel subfamily V member 1 (Rattus norvegicus) (UniProt O35433); assay: Antagonist activity at rat TRPV1 receptor expressed in HEK293T cells assessed as inhibition of temperature-induced calcium flux at 1 uM after 30 mins by Fluo-4AM based fluorescence assay relative to control; format: cell-based; settings: HEK-293T
Transient receptor potential cation channel subfamily V member 1 (Rattus norvegicus), sequence (O35433 whole entry): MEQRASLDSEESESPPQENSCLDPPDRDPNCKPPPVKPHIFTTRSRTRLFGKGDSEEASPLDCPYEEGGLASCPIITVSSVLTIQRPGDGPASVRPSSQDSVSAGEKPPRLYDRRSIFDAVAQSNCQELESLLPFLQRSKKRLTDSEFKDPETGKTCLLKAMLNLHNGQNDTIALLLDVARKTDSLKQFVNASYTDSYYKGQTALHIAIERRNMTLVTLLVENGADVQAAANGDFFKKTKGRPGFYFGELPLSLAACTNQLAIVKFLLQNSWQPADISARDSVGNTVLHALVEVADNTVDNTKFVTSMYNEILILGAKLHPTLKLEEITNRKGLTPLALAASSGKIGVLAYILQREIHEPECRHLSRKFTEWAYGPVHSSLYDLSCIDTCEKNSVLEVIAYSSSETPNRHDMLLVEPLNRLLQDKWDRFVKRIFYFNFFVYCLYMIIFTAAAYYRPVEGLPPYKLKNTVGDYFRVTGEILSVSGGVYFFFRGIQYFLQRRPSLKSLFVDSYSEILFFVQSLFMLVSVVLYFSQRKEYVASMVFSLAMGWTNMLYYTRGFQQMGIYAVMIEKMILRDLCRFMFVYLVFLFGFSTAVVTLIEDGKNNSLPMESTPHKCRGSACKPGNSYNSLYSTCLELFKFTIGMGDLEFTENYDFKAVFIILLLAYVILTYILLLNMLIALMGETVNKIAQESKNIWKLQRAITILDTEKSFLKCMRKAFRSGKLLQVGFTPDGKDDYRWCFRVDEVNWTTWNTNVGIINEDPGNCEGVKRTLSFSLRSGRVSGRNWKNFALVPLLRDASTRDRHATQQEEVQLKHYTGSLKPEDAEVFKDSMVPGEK

[2] = target: Transient receptor potential cation channel subfamily V member 1 (Rattus norvegicus) (UniProt O35433); assay: Antagonist activity at rat TRPV1 receptor expressed in HEK293T cells assessed as inhibition of capsaicin-induced calcium flux at 1 uM after 30 mins by Fluo-4AM based fluorescence assay relative to control; format: cell-based; settings: HEK-293T
[3] = target: T1, Transient receptor potential cation channel subfamily V member 1 (Rattus norvegicus, UniProt O35433); assay: Antagonist activity at rat TRPV1 receptor expressed in HEK293T cells assessed as inhibition of capsaicin-induced calcium flux after 30 mins by Fluo-4AM based fluorescence assay; format: cell-based, HEK-293T
T1 sequence (O35433 whole entry): as above

[4] = target: T1, Transient receptor potential cation channel subfamily V member 1; assay: Antagonist activity at rat TRPV1 receptor expressed in HEK293T cells assessed as inhibition of temperature-induced calcium flux after 30 mins by Fluo-4AM based fluorescence assay; format: cell-based, HEK-293T
[5] = target: T2, Uncharacterized protein (Gallus gallus) (UniProt F1NJH8); assay: Antagonist activity at chicken TRPV1 receptor assessed as inhibition of capsaicin-induced calcium flux at 1 uM after 30 mins by cell based Fluo-4AM fluorescence assay relative to control
T2 sequence (whole entry): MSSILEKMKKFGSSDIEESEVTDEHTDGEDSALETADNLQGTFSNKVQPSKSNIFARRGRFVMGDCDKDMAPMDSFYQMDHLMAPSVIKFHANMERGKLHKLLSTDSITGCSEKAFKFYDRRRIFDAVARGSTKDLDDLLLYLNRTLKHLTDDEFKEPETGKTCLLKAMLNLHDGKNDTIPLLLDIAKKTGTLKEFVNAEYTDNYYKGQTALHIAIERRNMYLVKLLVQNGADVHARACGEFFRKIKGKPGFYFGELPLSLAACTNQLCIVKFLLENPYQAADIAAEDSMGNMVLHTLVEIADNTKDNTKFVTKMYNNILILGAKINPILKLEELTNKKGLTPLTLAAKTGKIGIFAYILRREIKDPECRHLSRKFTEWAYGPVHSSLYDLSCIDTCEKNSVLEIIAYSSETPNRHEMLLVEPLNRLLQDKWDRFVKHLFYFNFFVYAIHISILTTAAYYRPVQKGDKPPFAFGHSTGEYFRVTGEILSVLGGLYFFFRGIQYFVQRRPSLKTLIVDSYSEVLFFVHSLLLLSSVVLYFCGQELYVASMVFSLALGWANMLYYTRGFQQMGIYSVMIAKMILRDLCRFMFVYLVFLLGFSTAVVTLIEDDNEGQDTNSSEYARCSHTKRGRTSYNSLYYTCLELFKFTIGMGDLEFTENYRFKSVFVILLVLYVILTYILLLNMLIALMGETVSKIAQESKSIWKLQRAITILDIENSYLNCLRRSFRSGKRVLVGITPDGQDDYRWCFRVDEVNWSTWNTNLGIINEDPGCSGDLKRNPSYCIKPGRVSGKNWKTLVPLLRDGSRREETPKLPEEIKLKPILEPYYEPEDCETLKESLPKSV

SMILES	inhibition [1] [%]	inhibition [2] [%]	pIC50 [3]	pIC50 [4]	inhibition [5] [%]
CCCCCCC(=O)Nc1nnc(-c2ccc(O)c(OC)c2)s1	94	95.3	9.11		
CCCCCCCCC(=O)Nc1nnc(-c2cc(I)c(O)c(OC)c2)s1	91.9	96.9	9.47	9.82	80.1
CCCCCC(=O)Nc1nnc(-c2cc(I)c(O)c(OC)c2)s1	94.3	96.6	8.83	9.54	95.3
CC(C)(C)c1ccc(NC(=O)N2CCN(c3ncccc3Cl)CC2)cc1	66.4	92.7			8.97
CCCCCC(=O)Nc1nnc(-c2ccc(O)c(OC)c2)s1	88.8	95.5	8.58		92.6
CCCCCCC(=O)Nc1nnc(-c2cc(I)c(O)c(OC)c2)s1	92.4	90.8	8.22		

Second part, the molecule after the results:

inhibition [1] [%]	inhibition [2] [%]	pIC50 [3]	pIC50 [4]	inhibition [5] [%]	SMILES
89.8	97.7	9.82		81.2	CCCCCCCC(=O)Nc1nnc(-c2ccc(O)c(OC)c2)s1
92.9	98.8	9.74	10.30	79.4	CCCCCCCCC(=O)Nc1nnc(-c2ccc(O)c(OC)c2)s1
93.7	94.5	9.48	8.96	85.4	CCCCCCCC(=O)Nc1nnc(-c2cc(I)c(O)c(OC)c2)s1
